The values that follow come from patent US20250161404A1, “METHODS AND COMPOSITIONS FOR THE CONTROL OF INFLAMMATION IN SKIN DISEASE” (VANDERBILT UNIVERSITY, priority 2023, published 2025).

≈ marks a conversion by molar mass, not a printed value. Where a SMILES comes first, the peptide text is derived from it. Bridges are numbered along the chain shown (N, C = ends).

Data set [1] is described as follows: Solubility of the peptide. It counts as physicochemical. The settings on record: cSN50: depending on the method of synthesis and purification; read-out: soluble at levels of. The protocol: cSN50.1 is a cyclized peptide having the sequence of cSN50 with the exception that the tyrosine at position 18 of cSN50, adjacent to the first cysteine, has been removed. Methods of making and using cSN50 are described, for example, in U.S. Pat. Nos. 7,553,929 and 6,495,518. The amino acid sequence of cSN50.1 is […] (SEQ ID NO: 2). The tyrosine at position 18 was removed from the sequence of cSN50 to increase solubility. cSN50 is soluble at levels of ranging from 2.0 mg/mL to 40 mg/mL depending on the method of synthesis and purification whereas cSN50.1 is soluble at levels of at least 100 mg/ml. Any mimetics, derivatives, or homologs of cSN50.1 may be used in the compositions, methods, and kits disclosed herein. cSN50.1 is also encompassed by SEQ ID NO: 3, SEQ ID NO: 4 and SEQ ID NO: 5. Additional examples of NTMs include fragment-designed and synthesized peptides in which cargo is incorporated as two, rather than one, modules or cargos derived from intracellular proteins other than NFκB 1. Such additional examples include the sequences of SEQ ID NO: 6, SEQ ID NO: 7, SEQ ID NO: 8, and SEQ ID NO: 9.

The nature of data set [2]: Cell viability of cultured human keratinocytes. In kind it is cell-based. The conditions noted are these: in all conditions, 48 hours after TNF-α/IL-17 challenge.
For data set [3] the following is noted: long-term NTCI treatment; cited from earlier work.
The target of the next data set is Imp beta (Homo sapiens, UniProt Q14974). The data set is described as follows: Cell culture and preclinical studies (Table 3 comment).
Sequence of Imp beta (Q14974 whole entry): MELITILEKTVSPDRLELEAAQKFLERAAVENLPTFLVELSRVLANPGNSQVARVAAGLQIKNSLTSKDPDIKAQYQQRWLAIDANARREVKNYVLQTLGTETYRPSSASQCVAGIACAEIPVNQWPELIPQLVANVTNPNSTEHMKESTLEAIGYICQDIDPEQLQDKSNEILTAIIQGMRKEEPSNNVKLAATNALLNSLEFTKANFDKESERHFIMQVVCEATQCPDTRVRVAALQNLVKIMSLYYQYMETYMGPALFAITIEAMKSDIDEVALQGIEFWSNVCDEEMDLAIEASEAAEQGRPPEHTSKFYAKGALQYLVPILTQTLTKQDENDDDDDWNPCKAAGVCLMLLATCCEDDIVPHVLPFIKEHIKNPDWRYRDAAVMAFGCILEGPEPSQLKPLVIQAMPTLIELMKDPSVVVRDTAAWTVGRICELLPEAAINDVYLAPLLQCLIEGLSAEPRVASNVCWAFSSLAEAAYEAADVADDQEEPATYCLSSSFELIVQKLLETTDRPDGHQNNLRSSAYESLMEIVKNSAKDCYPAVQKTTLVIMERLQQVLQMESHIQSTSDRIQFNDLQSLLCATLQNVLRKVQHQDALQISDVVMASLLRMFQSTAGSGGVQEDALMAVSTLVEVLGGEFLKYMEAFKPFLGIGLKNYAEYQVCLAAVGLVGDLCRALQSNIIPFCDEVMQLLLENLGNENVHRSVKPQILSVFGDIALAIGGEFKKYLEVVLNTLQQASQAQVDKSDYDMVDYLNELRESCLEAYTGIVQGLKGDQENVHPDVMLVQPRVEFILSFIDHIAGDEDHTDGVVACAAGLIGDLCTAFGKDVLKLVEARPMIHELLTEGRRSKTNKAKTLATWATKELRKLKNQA
The target in another data set is Importin beta (Homo sapiens, UniProt Q14974). The data set is described as follows: Binding studies (Table 3 comment).
Sequence of Importin beta (Q14974 whole entry): as above

Turning to `CSCC[C@@H]1NC(=O)[C@H](CC(C)C)NC(=O)[C@H](CCCCN)NC(=O)[C@H](CCC(N)=O)NC(=O)[C@H](CCCNC(=N)N)NC(=O)[C@H](CCCCN)NC(=O)[C@H](CCCNC(=N)N)NC(=O)[C@H](CCC(N)=O)NC(=O)[C@H](C(C)C)NC(=O)[C@@H](NC(=O)[C@@H]2CCCN2C(=O)[C@H](C)NC(=O)[C@H](CC(C)C)NC(=O)[C@H](CC(C)C)NC(=O)[C@H](C)NC(=O)[C@H](CC(C)C)NC(=O)[C@H](CC(C)C)NC(=O)[C@@H](NC(=O)[C@H](C)NC(=O)[C@@H]2CCCN2C(=O)[C@H](CC(C)C)NC(=O)[C@H](CC(C)C)NC(=O)[C@H](C)NC(=O)[C@@H](NC(=O)[C@H](C)NC(=O)[C@H](C)N)C(C)C)C(C)C)CSSC[C@@H](C(=O)O)NC(=O)[C@@H]2CCCN2C1=O` [cSN50.1] (H-AAVALLPAVLLALLAPCVQRKRQKLMPC-OH; disulfide 17-28; N-terminus and C-terminus assumed), in data set [1], the solubility was at least 100 mg/mL. Besides, in data set [2], the viability at 48 h was over 80%. Besides, the apparent toxicity entry in data set [3] is “lack of apparent toxicity”. Take `CSCC[C@@H]1NC(=O)[C@H](CC(C)C)NC(=O)[C@H](CCCCN)NC(=O)[C@H](CCC(N)=O)NC(=O)[C@H](CCCNC(=N)N)NC(=O)[C@H](CCCCN)NC(=O)[C@H](CCCNC(=N)N)NC(=O)[C@H](CCC(N)=O)NC(=O)[C@H](C(C)C)NC(=O)[C@H](Cc2ccc(O)cc2)NC(=O)[C@@H](NC(=O)[C@@H]2CCCN2C(=O)[C@H](C)NC(=O)[C@H](CC(C)C)NC(=O)[C@H](CC(C)C)NC(=O)[C@H](C)NC(=O)[C@H](CC(C)C)NC(=O)[C@H](CC(C)C)NC(=O)[C@@H](NC(=O)[C@H](C)NC(=O)[C@@H]2CCCN2C(=O)[C@H](CC(C)C)NC(=O)[C@H](CC(C)C)NC(=O)[C@H](C)NC(=O)[C@@H](NC(=O)[C@H](C)NC(=O)[C@H](C)N)C(C)C)C(C)C)CSSC[C@@H](C(=O)O)NC(=O)[C@@H]2CCCN2C1=O` [cSN50] (H-AAVALLPAVLLALLAPCYVQRKRQKLMPC-OH; disulfide 17-29; N-terminus and C-terminus assumed): in data set [1], the solubility was in the range of 2 to 40 mg/mL (≈ 0.635 to 12.7 mM). On to AAVALLPAVLLALLAPCVQRDEQKLMPC [cSN50.1β], for which the “Comments: importin selectivity” value with Imp beta is reported as “Imp beta-selective”. Consider “AAVALLPAVLLALLAPVQRDEQKLMP (Description of sequence: Peptide, name of peptide: SM12)”, for which the “Comments: importin selectivity” value with Importin beta is reported as “Importin beta-”.
